Experimental data from patent US8378098B2, “Imidazol[1,2-α]quinoxalines and derivatives for the treatment of cancers” (Universite de Montpellier I, priority 2007, dated 2013).
“Also recorded” adds a separate entry of the source. Where two headings read alike, the source gives them in different places.

How the values were obtained:
[1] = test system: normal lymphocytes activated or not activated by PHA; assay: growth of normal lymphocytes at rest or activated by PHA; type: cell-based, human; details: two healthy subjects
Protocol: FIG. 2: HTLV-I-positive and HTLV-I-negative malignant human cell lines are sensitive to EAPB0203, but activated or inactivated normal T lymphocytes are resistant. Effects of EAPB0203 on the growth of human T lines not infected by HTLV-I (CEM, Jurkatt, Molt-4 and HuT-78), HTLV-I-positive human T lines (HuT-102 and C8166, and MT2), and normal lymphocytes at rest or activated by PHA. The activated normal PBMC were supplemented with 2% PHA. EAPB0203 was added at the concentrations indicated in mole/l for 24-96 h. Cell growth is analyzed with the “CellTiter 96®” nonradioactive cell growth kit. The results are expressed as a percentage of the control (0.1% DMSO) and represent the mean of the results obtained in three independent experiments.
The in vitro activity of EAPB0203 on adult T-cell leukemia (ATL) transformed by retrovirus HTLV-I (HuT-102, MT2 . . . ) and malignant HTLV-I-negative T-cells (CEM, Jurkatt . . . ) was evaluated. Initially, the effect of EAPB0203 on cell growth of these lines was evaluated by two techniques, the nonradioactive “CellTiter 96®” cell growth kit and the trypan blue exclusion method.

[2] = test system: MCF7 (breast cancer); assay: in vitro cytotoxicity on MCF7 breast cancer line; type: cell-based; details: Homo sapiens, Table 2, unit inferred
Text: (§1) Several human carcinoma cell lines were used: • Lines A375, M4Be, RPMI7591 from human melanoma. • Line LS174T from colon carcinoma. • Line A 2780 from ovarian carcinoma. • The Raji line from B lymphoma. • Line MCF7 from breast carcinoma.

[3] = test system: CEM, HuT-102, MT2, and Jurkatt cells; assay: cell cycle analysis by flow cytometry (propidium iodide); type: cell-based, human
Protocol: (A) Effects of EAPB0203 on the distribution of the cell cycle of CEM, HuT-102, MT2, and Jurkatt cells. The cells treated by EAPB0203 were marked with propidium iodide ([…]) and analysis of the cellular cycle was carried out by FACScan flow cytometry. (b) The pre-G1 percentage represents the apoptotic cells. (c) The cells in cycle, the sum of phases (S+G2/M), are represented as a percentage of non-apoptotic cells. The results represent two independent experiments.
The mechanisms of inhibition of cell proliferation caused by EAPB0203 in the cell lines studied were determined by flow cytometry. This study evaluated the distribution of cells in the various phases of the cell cycle. […] This pre-G0/G1 peak corresponds to cells whose DNA content is decreased by loss of cleaved DNA fragments during cell death (FIG. 3).

[4] = test system: CEM and HuT-102 cells; HuT-102 and MT2 cells; assay: protein expression by western blot (caspases, Bcl-2 family, cell cycle regulators); type: cell-based, human
Text: Proteinic cell extracts were obtained after various treatments and evaluation of the expression of certain proteins was studied by western blot.
Activation of the mitochondrial route is controlled by members of the Bcl-2 family. […] In the cell lines infected or not infected by HTLV-I, the effect of EAPB0203 on regulators of the cell cycle is studied.

[5] = test system: RPMI7591 (melanoma); assay: in vitro cytotoxicity on RPMI7591 melanoma line; type: cell-based; details: Homo sapiens; Table 2; unit inferred; read-out: IC50 RPMI7591
Text: as §1

[6] = test system: M4Be (melanoma); assay: in vitro cytotoxicity on M4Be melanoma line; type: cell-based; details: Homo sapiens, Table 2, unit inferred, read-out: IC50 M4Be
Text: as §1

[7] = test system: Raji (B lymphoma); assay: in vitro cytotoxicity on Raji B lymphoma line; type: cell-based, human; details: Homo sapiens, Raji; Table 2; unit inferred
Text: as §1

[8] = lethal doses 50% reported in the pharmacokinetic study; type: in vivo; details: species and route not stated in the sentence (rat study)
Protocol: (§2) Methods of assaying compounds EAPB0203, EAPB0503 and EAPB0603 by high performance liquid chromatography and detection by mass spectrometry (LC/ESI-MS) were developed and validated in human and rat plasmas. Pre-treatment of the samples consists of a liquid solid extraction preceded by precipitation of plasma proteins in acid medium. The chromatographic column used is C8 Zorbax eclipse XDB and the mobile phase (gradient) a mixture of acetonitrile and formate buffer (pH 3) (flow rate, 0.8 ml/min). The […] from 92 to 113%. The extraction coefficients are higher than 72%. The quantification limit is 5 μg/l for all analytes. Stability tests of the compounds in the matrices were also carried out. These methods were used to determine the pharmacokinetic parameters of compounds EAPB0203, EAPB0503 and EAPB0603 in the rat. The lethal doses 50% of compounds EAPB0203 and EAPB0503 are respectively 14.8 and 7.6 mg/kg.

[9] = in vivo; details: rat, iv, 5 mg/kg
Protocol: as §2

[10] = test system: leukaemic cells derived from two patients with ATL; assay: cell proliferation of leukaemic cells derived from patients with ATL; type: cell-based, human
[11] = test system: treated cell lines; assay: mitochondrial route of apoptosis (Rhodamine 123 transmembrane potential, cytochrome C localization); type: cell-based, human
Text: Mitochondria play a central role in apoptotic mechanisms. The first detectable cellular disturbance during the apoptotic process is a reduction in mitochondrial transmembrane potential.
Indeed, activation of the intrinsic mitochondrial route in the cells studied is shown.

[12] = test system: A375 melanoma; assay: in vitro cytotoxicity (antiproliferative activity) on A375 melanoma line; type: cell-based, human; details: for IC50: Homo sapiens, A-375
Text: Antiproliferative activity was first measured on a cancer cell line of human origin, A375 melanoma.
Imiquimod and fotemustine (Muphoran®) are used as controls in this study.
as §1
IC50 (concentration of the product tested which inhibits 50% of the maximum cell proliferation observed in the control wells) is determined graphically from the curve of the percentage of cell proliferation as a function of concentration of the product tested.

[13] = A375, comparison of IC50 values

CNc1nc2ccccc2n2c(CCc3ccccc3)cnc12 [EAPB0203, N-methyl-1-(2-phenylethyl)imidazo[1,2-a]quinoxalin-4-amine]
growth of normal lymphocytes [1]: completely resistant
IC50 [2]: 1.08 ± 0.46 µM
pre-G0/G1 apoptotic population [3]: presence of a pre-G0/G1 apoptotic population
distribution of cells in the phases of the cell cycle ([3]; propidium iodide): induces the termination of the cell cycle in phase G2/M; also recorded: progressive accumulation of cells in phase G2
caspases (cleavage of PARP, procaspase-3, -8, -9) ([4]; CEM and HuT-102 cells, western blot): activation of caspases
expression of proteins p21 and p53 ([4]; HuT-102 and MT2 cells (HTLV-I-positive)): significant increase
apoptosis under co-treatment by caspase inhibitor zVAD ([4]; co-treatment with zVAD): partial protection
expression of IAP-1 proteins and bcl-xL ([4]; western blot): significant reduction
IC50 [5]: 4.23 ± 0.48 µM
IC50 [6]: 2.58 ± 0.4 µM
IC50 [7]: 6.23 ± 0.06 µM
lethal doses 50% [8]: 14.8 mg/kg
Vd [9]: 10.6 L/kg
area under the curve of plasma concentrations [9]: 870 ng·h/mL
clearance [9]: 48.3 mL/min/kg
half-life [9]: 2.6 h
cell proliferation of leukaemic cells from ATL patients [10]: induced inhibition of cell proliferation
mitochondrial transmembrane potential ([11]; Rhodamine 123, flow cytometry): drop in the mitochondrial transmembrane potential
sub-cellular localization of cytochrome C ([11]; treated cell lines): presence of cytochrome C in the cytoplasm
activity times higher than that of fotemustine [12, 13]: 110 times
activity times higher than that of imiquimod [12, 13]: 50 times
IC50 ([12]; A375 melanoma line, Table 1, IC50 and standard deviation, read-out: IC50): 1.57 µM
IC50 ([12]; Table 2, unit inferred, read-out: IC50 A375): 1.57 ± 0.56 µM
